Key:
[1] = test system: patients with cognitive impairment consistent with MCI or mild probable AD; assay: Open-label three-month study, cognitive tests (QDRS, MMSE, MoCA, ADAS-Cog12, Global Rating of Change); format: in vivo, human
Description: Twenty-three patients, approximately equal numbers of men women, age 50-89 years, with cognitive impairment consistent with MCI or mild probable AD, but without other readily apparent major systemic disease were identified and received informed consent under the supervision of a central institution review board (IRB). Patients were qualified (screened) for the study by the following criteria, QDRS score ranging from 1.5-12.5, with a converted Clinical Dementia Rating (CDR) score of 0.5 (mild cognitive impairment) to 1 (mild dementia).
Prior to treatment (baseline) concomitant medications were stabilized and the patients were tested for cognitive function by the Quick Dementia Rating Scale (QDRS), Clinical Dementia Rating (CDR) score as estimated by the QDRS, a modified form of the Alzheimer's Disease Assessment Scale (ADAS-Cog12), the Mini-Mental State Examination (MMSE), and the Montreal Cognitive Assessment (MoCA) and by multi-modal brain MRIs to establish pre-treatment data for glutathione levels (as measured by magnetic resonance spectroscopy, MRS), dendritic density (as measured by diffusion tensor imaging, DTI-NODDI); arterial signal compared (as quantified by arterial spin labeling, ASL), functional connectivity of the nucleus basalis of Meynert (NBM) with both hippocampi as well as between both hippocampi as visualized by seed analysis of blood-oxygen level dependent (BOLD) imaging, and neurovascular coupling as visualized by BOLD compared to baseline. Baseline samples of the patients' blood and cerebral spinal fluid were collected for evaluation of AD and inflammation biomarkers.
Patients were treated with 20 mg 17α-ethynylandrost-5-ene-3β,7β,17β-triol oral capsules twice daily (BID for three months. All patients received 17α-ethynylandrost-5-ene-3β,7β,17β-triol; there were no placebo controls. Safety was monitored at clinical visits at 2 weeks, 4 weeks, 8 weeks, and completion. Routine hematology and clinical chemistry tests were performed at these visits and adverse events were monitored.
At the end of the treatment schedule the baseline assessments for cognition, neuroimaging and biomarkers were repeated.

[2] = test system: patients with degenerative dementia; assay: Exit interviews with patients who completed NE3107-TRP-001; format: in vivo, human
Method: The exit interviews were conducted in the US with 11 adult patients/study partners who completed the Phase 2 trial of NE3107. Participants (patients and study partners) completed one 60-minute semi-structured interview via remote videoconference to facilitate face-to-face communication.
Each interview was divided into four parts: 1) elicitation of experience with degenerative dementia, 2) changes due to treatment with NE3107 and meaningfulness of those changes, 3) experience with NE3107 during the trial, and, if applicable, 4) study partner perceptions of the patient's changes during the trial and their trial experience.
Interviews took place via videoconference with a trained and experienced interviewers using a semi-structured interview guide. Participants were required to confirm that they signed the ICF for the exit interview, and provide permission to record the interview. The interviews lasted approximately 60 minutes. Open-ended questions were used to characterize the participant's experience with degenerative dementia. Three overarching topics were covered: 1) degenerative dementia signs and symptoms prior to the trial, 2) changes experienced during the trial, and 3) experience with the trial medication (NE3107). Interviewers noted spontaneously reported changes experienced during the trial and followed up with probes (as needed) to elicit the full range of changes experienced.
If both the patient and study partner participated, the patient was interviewed first with the study partner present. Following the patient interview, the study partner was interviewed without the patient present. Interviewers were instructed to direct the questions towards the patient and to remind the study partner that they would have an opportunity to add information or different perspectives at the end.
The coding and analysis of the interview transcripts followed principles in line with qualitative thematic (content) analysis (Braun et al. 2019), with additional features drawn from grounded theory (Bryant and Charmaz 2007; Strauss and Corbin 1998). This approach conforms to best practices in the field (Patrick et al. 2011). A saturation table was developed during the coding process and updated after each interview to ensure that the interviews provided sufficient quality and quantity of data to support the study goals. The focus of saturation was changes due to treatment.
During the interviews, patients were asked open-ended questions about any changes they experienced as a result of being treated with NE3107. Patients reported 14 unique change-related concepts related that were categorized as follows: cognitive (2 concepts), psychological (4 concepts), behavioral (2 concepts), physical (5 concepts), and no change (1 concept) (Table 3).

[3] = overall population, three months
[4] = patients with a baseline MMSE score 20, three months

Structure (SMILES): C#C[C@]1(O)CC[C@H]2[C@@H]3[C@@H](O)C=C4C[C@@H](O)CC[C@]4(C)[C@H]3CC[C@@]21C [17α-ethynylandrost-5-ene-3β,7β,17β-triol, 17-ethynyl-10R, 13S-dimethyl 2,3,4,7, 8R, 9S, 10, 11, 12, 13, 14S, 15, 16, 17-hexadecahydro-1H-cyclopenta[a]phenanthrene-3R, 7R, 17S-triol]
- QDRS, median decrease ([1]; 20 mg oral BID, three months vs baseline): 0.75 points
- GSR scores improved, by patients ([1]; MCI patients, three months): 15 of 17
- GSR scores improved, by study partners ([1]; MCI patients, three months): 11 of 17
- GSR scores improved, by the clinician ([1]; MCI patients, three months): 16 of 17
- Median QDRS behavioral improved ([1]; MCI patients, three months): one
- Montreal Cognitive Assessment, improved ([1]; MCI patients, three months): 7 of 17
- QDRS behavioral, improved ([1]; MCI patients, three months): 11 of 18
- ADAS Cog 12, median score improved ([1]; MCI population, three months): 2.3 points
- ADAS Cog 12 score, improved ([1]; MCI population, three months): 14 of 17
- MMSE score, improved ([1]; MCI population, three months): 8 of 17
- QDRS, patients improved ([1]; of patients evaluated, 20 mg oral BID, three months): 14 of 21
- ADAS Cog 12, median score improved [1, 3]: 0.67 points
- ADAS Cog 12 score, improved [1, 3]: 14 of 23
- Global Rating of Change (GRS), clinician's score improved [1, 3]: 18 of 23
- Global Rating of Change (GRS), patient's self-evaluation score improved [1, 3]: 18 of 23
- Global Rating of Change (GRS), score from study partners improved [1, 3]: 13 of 22
- MMSE score, improved [1, 3]: 9 of 23
- Montreal Cognitive Assessment, patients improved [1, 3]: 9 of 23
- improved (QDRS) [1, 4]: 12/17
- median score improvement (QDRS) [1, 4]: one
- Median QDRS cognition subscores improved (declined) ([1]; three months vs baseline): 0.5 points
- QDRS cognition subscores, patients improved ([1]; three months vs baseline): 16/23
- average number of positive changes per patient who improved ([2]; SD=1.86, range 1-7): 4.7
- Change due to treatment reported by patients: No Change ([2]; exit interviews, N = 11): 2 n
- patients who experienced no change ([2]; exit interviews, N = 11, figure in brackets after the count): 15.4
- Change due to treatment reported by patients: No Change ([2]; exit interviews, N = 11, listed as NE3107): two
- Cognitive Change from Interview (Memory or Clarity) ([2]; subject N-02-22): Improvement
- Cognitive Change from Interview (Memory or Clarity) ([2]; subject N-03-22): Improvement
- Cognitive Change from Interview (Memory or Clarity) ([2]; subject N-07-22): Improvement
- Cognitive Change from Interview (Memory or Clarity) ([2]; subject N-10-22): No Change
- Cognitive Change from Interview (Memory or Clarity) ([2]; subject N-14-22): No Change
- Cognitive Change from Interview (Memory or Clarity) ([2]; subject N-16-22): Improvement
- Cognitive Change from Interview (Memory or Clarity) ([2]; subject N-17-22): Improvement
- Cognitive Change from Interview (Memory or Clarity) ([2]; subject N-18-22): Improvement
- Cognitive Change from Interview (Memory or Clarity) ([2]; subject N-20-22): Improvement
- Cognitive Change from Interview (Memory or Clarity) ([2]; subject N-22-22): Improvement
- Cognitive Change from Interview (Memory or Clarity) ([2]; subject N-23-22): Improvement

— patent publication US20250186458A1, “METHODS FOR THE TREATMENT OF MILD COGNITIVE IMPAIRMENT” (BIOVIE INC., priority 2022, published 2025)
